Reference: PubChem BioAssay AID2060621 (Molecular Pharmacology Branch, DTP, NCI, 2025)

System: 324938-238-R-J1-PDC complex spheroids viability
Experiment: Anticancer human tumor 324938-238-R-J1-PDC patient-derived bladder carcinoma cell line growth inhibition [CLK]
Conditions: for IC50: curve of first compound; for viability, T/C: stronger effect = lower value
Description: A high-throughput screen of multi-cell type tumor spheroids was designed to identify active combinations of […] and targeted small molecules. Complex spheroids include a stromal component modeled by human endothelial cells (HUVEC) and fibroblasts modeled by human mesenchymal stem cells (MSCs). The concentration ranges selected for each drug and investigational agent were based upon clinically achievable concentrations if the clinical Cmax of the agent was known.
Compounds. The drugs and investigational agents: cirtuvivint (SM08502; NSC835563), CC-671 (NSC850746), vemurafenib (NSC761431), tapotoclax (NSC804041), sotorasib (NSC818433), adagrasib (NSC831453), MRTX-1133 (NSC836407), BAY2416964 (NSC825713), copanlisib (NSC816437), inavolisib (NSC800729), abemaciclib (NSC768073), osimertinib (NSC779217), entinostat (NSC756642), eltanexor (KPT-8602, NSC794443), venetoclax (NSC766270), ceralasertib (NSC777638), bortezomib (NSC756655), olaparib (NSC753686), talazoparib (NSC767125), alisertib (NSC759677), peposertib (NSC802822), gemcitabine (NSC613327), 5-fluorouracil (NSC19893), SN-38 (NSC673596), oxaliplatin (NSC266046), paclitaxel (NSC125973), and doxorubicin (NSC123127), were obtained from the National Cancer Institute (NCI) Developmental Therapeutics Program Chemical Repository. The FDA-approved anticancer drug set is available from the Developmental Therapeutics Program at https://dtp.cancer.gov/organization/dscb/obtaining/available plates.htm. […] The stock solutions were prepared in dimethyl sulfoxide (DMSO, Sigma-Aldrich, St. Louis, MO, cat. D2650), except for the platinum complexes which were prepared in saline (Quality Biological, Gaithersburg, MD, cat. 114-055-101), at 800-fold the tested concentration and stored at -70 degrees C prior to their use. All drugs and investigational agents were tested over a range starting from a high concentration at or near the clinical Cmax and decreasing in half-log increments. If the clinical Cmax for an agent had not been determined, the highest concentration tested was 10 microM.
Cell Culture. All cells were maintained in an incubator at 37 degrees C and 5% CO2 with 95% humidity. The PDC lines were cultured according to standard operating procedures established by the NCI PDMR. Briefly, all PDCs were thawed and cultured in Matrigel-coated flasks prepared with a working solution of 1X Ham's F-12 nutrient mix, without supplementation (Invitrogen, Waltham, MA, cat. 11765054), 100 U/mL penicillin-streptomycin (Invitrogen, cat. 15140122), and 2.5% Matrigel (Corning Inc., Corning, NY, cat. 354248) for the first three passages. The 947758-054-R-J2-PDC line was cultured in 6B/Colon 1A media, which includes advanced DMEM/F-12 (Thermo Fisher Scientific, cat. 12634028), 10 mM HEPES (Thermo Fisher Scientific, cat. 15630080), 1X GlutaMAX supplement (Thermo Fisher Scientific, cat. 35050061), 0.1 mg/mL primocin (InvivoGen, cat. ant-pm-2), 10% defined fetal bovine serum, heat inactivated (HyClone Laboratories Inc., cat. SH30070.03HI), 1.25 mM N-Acetyl-L-cysteine (Sigma-Aldrich, cat. A9165), 10 mM nicotinamide (Sigma-Aldrich, cat. N0636), 1X B-27 supplement (Thermo Fisher Scientific, cat. 17504044), 1X N-2 supplement (Thermo Fisher Scientific, cat. 17502048), and 10 microM Y-27632 dihydrochloride (Tocris Bioscience, cat. 1254). The 876862-298-R-J1-PDC was cultured in 6E media, which includes all 6B/Colon 1A media components plus 50% L-WRN conditioned media (ATCC, cat. CRL-3276), 50 ng/mL recombinant human EGF recombinant protein (hEGF; Thermo Fisher Scientific, cat. PHG0311), 10 ng/mL recombinant human fibroblast growth factor 10 (hGFG-10; PeproTech, cat. 100-26), 1 ng/mL recombinant human fibroblast growth factor 2 (hFGF-2; PeproTech, cat. 100-18B), and 1 µM prostaglandin E2 (PGE2; Tocris, cat. 2296). The 227483-062-R1-J1-PDC line was cultured in Panc media, containing all 6E components except hFGF-2, with the addition of 500 nM SB-431542 (Selleckchem, cat. S1067) and 10 nM gastrin (Tocris, cat. 3006). […]

[1] = second compound 0.0316 µM, first compound 0.0316 µM
[2] = second compound 0.0316 µM, first compound 0.1 µM
[3] = second compound 0.0316 µM, first compound 0.316 µM
[4] = second compound 0.0316 µM, first compound 1 µM
[5] = second compound 0.0316 µM, first compound 3.16 µM
[6] = second compound 0.0316 µM, first compound 10 µM
[7] = second compound 0.1 µM, first compound 0.0316 µM
[8] = second compound 0.1 µM, first compound 0.1 µM
[9] = second compound 0.1 µM, first compound 0.316 µM
[10] = second compound 0.1 µM, first compound 1 µM
[11] = second compound 0.1 µM, first compound 3.16 µM
[12] = second compound 0.1 µM, first compound 10 µM
[13] = second compound 0.316 µM, first compound 0.0316 µM
[14] = second compound 0.316 µM, first compound 0.1 µM
[15] = second compound 0.316 µM, first compound 0.316 µM
[16] = second compound 0.316 µM, first compound 1 µM
[17] = second compound 0.316 µM, first compound 3.16 µM
[18] = second compound 0.316 µM, first compound 10 µM
[19] = second compound 1 µM, first compound 0.0316 µM
[20] = second compound 1 µM, first compound 0.1 µM
[21] = second compound 1 µM, first compound 0.316 µM
[22] = second compound 1 µM, first compound 1 µM
[23] = second compound 1 µM, first compound 3.16 µM
[24] = second compound 1 µM, first compound 10 µM
[25] = second compound 3.16 µM, first compound 0.0316 µM
[26] = second compound 3.16 µM, first compound 0.1 µM
[27] = second compound 3.16 µM, first compound 0.316 µM
[28] = second compound 3.16 µM, first compound 1 µM
[29] = second compound 3.16 µM, first compound 3.16 µM
[30] = second compound 3.16 µM, first compound 10 µM
[31] = second compound 10 µM, first compound 0.0316 µM
[32] = second compound 10 µM, first compound 0.1 µM
[33] = second compound 10 µM, first compound 0.316 µM
[34] = second compound 10 µM, first compound 1 µM
[35] = second compound 10 µM, first compound 3.16 µM
[36] = second compound 10 µM, first compound 10 µM
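Further: viability read after seven days of drug exposure.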
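Wherever viability, T/C is given: 100% = DMSO vehicle control wells.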

With `C#Cc1c(F)ccc2cc(O)cc(-c3ncc4c(N5CC6CCC(C5)N6)nc(OCC56CCCN5CC(F)C6)nc4c3F)c12` (stereo unspecified) + CN1CCN(c2cc(C(=O)Nc3cc4cc(-c5cnn(C)c5)ccc4cn3)ccn2)CC1 the IC50 (second compound 0.0316 µM) was 5050 nM, the IC50 (second compound 0.1 µM) was 1240 nM and the IC50 (second compound 0.316 µM) was < 31.6 nM. The IC50 (second compound 1 µM) was < 31.6 nM, the IC50 (second compound 3.16 µM) was < 31.6 nM and the IC50 (second compound 10 µM) was < 31.6 nM. For the same molecule, the viability, T/C [1] was 77.5%, the viability, T/C [2] was 86.1% and the viability, T/C [3] was 74.5%. It also gave a viability, T/C [4] of 69.9%, a viability, T/C [5] of 56% and a viability, T/C [6] of 41.4%. The viability, T/C [7] was 57.3%, the viability, T/C [8] was 51.8% and the viability, T/C [9] was 52.7%. The viability, T/C [10] was 52.8%, the viability, T/C [11] was 38% and the viability, T/C [12] was 32.7%. The viability, T/C [13] was 28.2%, the viability, T/C [14] was 28% and the viability, T/C [15] was 22.2%. It also gave a viability, T/C [16] of 23.9%, a viability, T/C [17] of 21.5% and a viability, T/C [18] of 19.4%. For the same molecule, the viability, T/C [19] was 2%, the viability, T/C [20] was 2.51% and the viability, T/C [21] was 2.35%. The viability, T/C [22] was 2.31%, the viability, T/C [23] was 1.37% and the viability, T/C [24] was 0.75%. The viability, T/C [25] was 0.13%, the viability, T/C [26] was 0.3% and the viability, T/C [27] was 0.16%. The viability, T/C [28] was 0.11%, the viability, T/C [29] was 0.15% and the viability, T/C [30] was 0.14%. It also gave a viability, T/C [31] of 0.11%, a viability, T/C [32] of 0.16% and a viability, T/C [33] of 1.1%. For the same molecule, the viability, T/C [34] was 0.14%, the viability, T/C [35] was 0.15% and the viability, T/C [36] was 0.24%.
With `C=C(F)C(=O)N1CCN(c2nc(OCC3CCCN3C)nc3c2CCN(c2cccc4cccc(Cl)c24)C3)CC1CC#N` (stereo unspecified) + CN1CCN(c2cc(C(=O)Nc3cc4cc(-c5cnn(C)c5)ccc4cn3)ccn2)CC1 the IC50 (second compound 0.0316 µM) was 3120 nM, the IC50 (second compound 0.1 µM) was 1560 nM and the IC50 (second compound 0.316 µM) was < 31.6 nM. The IC50 (second compound 1 µM) was < 31.6 nM, the IC50 (second compound 3.16 µM) was < 31.6 nM and the IC50 (second compound 10 µM) was < 31.6 nM. It also gave a viability, T/C [1] of 75.2%, a viability, T/C [2] of 88.7% and a viability, T/C [3] of 81.8%. It also gave a viability, T/C [4] of 78.8%, a viability, T/C [5] of 49.6% and a viability, T/C [6] of 2.48%. It also gave a viability, T/C [7] of 60.9%, a viability, T/C [8] of 64% and a viability, T/C [9] of 57.3%. It also gave a viability, T/C [10] of 53.3%, a viability, T/C [11] of 43.3% and a viability, T/C [12] of 2.19%. The viability, T/C [13] was 25.4%, the viability, T/C [14] was 26.9% and the viability, T/C [15] was 22.3%. It also gave a viability, T/C [16] of 24.5%, a viability, T/C [17] of 19.6% and a viability, T/C [18] of 0.24%. The viability, T/C [19] was 2.43%, the viability, T/C [20] was 1.75% and the viability, T/C [21] was 2.24%. It also gave a viability, T/C [22] of 1.87%, a viability, T/C [23] of 0.88% and a viability, T/C [24] of 0.23%. For the same molecule, the viability, T/C [25] was 0.21%, the viability, T/C [26] was 0.19% and the viability, T/C [27] was 0.24%. For the same molecule, the viability, T/C [28] was 0.17%, the viability, T/C [29] was 0.33% and the viability, T/C [30] was 0.12%. The viability, T/C [31] was 0.34%, the viability, T/C [32] was 0.23% and the viability, T/C [33] was 0.23%. It also gave a viability, T/C [34] of 0.35%, a viability, T/C [35] of 0.2% and a viability, T/C [36] of 0.2%.
With `CC(CO)NC(=O)c1cc(-c2ccc(Cl)cc2)nn(-c2cnn(C)c2)c1=O` (stereo unspecified) + CN1CCN(c2cc(C(=O)Nc3cc4cc(-c5cnn(C)c5)ccc4cn3)ccn2)CC1 the IC50 (second compound 0.0316 µM) was > 10000 nM, the IC50 (second compound 0.1 µM) was 4990 nM and the IC50 (second compound 0.316 µM) was < 31.6 nM. For the same molecule, the IC50 (second compound 1 µM) was < 31.6 nM, the IC50 (second compound 3.16 µM) was < 31.6 nM and the IC50 (second compound 10 µM) was < 31.6 nM. For the same molecule, the viability, T/C [1] was 84.4%, the viability, T/C [2] was 92.8% and the viability, T/C [3] was 83.5%. For the same molecule, the viability, T/C [4] was 81%, the viability, T/C [5] was 63.6% and the viability, T/C [6] was 50.9%. For the same molecule, the viability, T/C [7] was 60.7%, the viability, T/C [8] was 62.8% and the viability, T/C [9] was 63.3%. For the same molecule, the viability, T/C [10] was 55.7%, the viability, T/C [11] was 57.3% and the viability, T/C [12] was 41.3%. It also gave a viability, T/C [13] of 23.5%, a viability, T/C [14] of 25.9% and a viability, T/C [15] of 25.3%. For the same molecule, the viability, T/C [16] was 25.8%, the viability, T/C [17] was 26.5% and the viability, T/C [18] was 21.4%. The viability, T/C [19] was 1.59%, the viability, T/C [20] was 1.8% and the viability, T/C [21] was 1.38%. The viability, T/C [22] was 1.23%, the viability, T/C [23] was 1.2% and the viability, T/C [24] was 1.04%. It also gave a viability, T/C [25] of 0.16%, a viability, T/C [26] of 0.21% and a viability, T/C [27] of 0.21%. It also gave a viability, T/C [28] of 0.15%, a viability, T/C [29] of 0.25% and a viability, T/C [30] of 0.67%. It also gave a viability, T/C [31] of 0.13%, a viability, T/C [32] of 0.19% and a viability, T/C [33] of 0.25%. For the same molecule, the viability, T/C [34] was 0.2%, the viability, T/C [35] was 0.18% and the viability, T/C [36] was 0.22%.
